Test results from US6913930B2, “Analytical method and apparatus therefor involving continuous titration” (Glaxo Wellcome Inc., priority 1997, dated 2005).
“And” between values parts separate entries of the source, which are not always exact repeats. Identical values can stand only once. Marks after values point to notes of the source that are not given here. One block for each compound: values may come before it.

Assays:
[1] = pKa by continuous titration, apparatus of FIG. 8, optimised buffers, TFA or 1st derivative data processing; conditions: for pKa (1st Deriv.): first derivative method
[2] = physchem
[3] = test solutes; potentiometric titration on Sirius PCA 101 instrument in 0.15 KCl
[4] = pKa by continuous titration, linear pH gradient, apparatus of FIG. 2, 1st derivative peak time read from standards calibration curve; format: physicochemical; conditions: from standards calibration curve via time to peak maximum of 1st derivative, gradient over 4 minutes, FIG. 2 apparatus
Method: The following pKa determination experiment was performed on this apparatus.
The two buffers have a common component to which an acidic component is added to form buffer A and a basic component is added to form buffer B. The buffers were made up as follows:
The sample solution was kept constant at 20%. The HP1050 pump was used again with buffer B introduced via channel B and buffer A via channel C. The flow rate of the test mixture stream from the mixer to the detector was 1 cm^3 min^−1.
The calibration results are set out below: Time to peak maximum is from the start of the instrument cycle (when the autosampler first goes into a new sample container).

[5] = physchem; remark: listed apart in the source
[6] = cited from earlier work
[7] = Albert & Serjeant, 1984; corrected for an ionic strength of 0.15 M; cited from earlier work
[8] = run with calibration curve pH=−0.022×time+12.66

pKa (1st Deriv.) [1, 8]: 5.81 ± 0.40
pKa [2]: 5.73 ± 0.08
SMILES: NCCCn1ccnc1 [1-(3-Aminopropyl)imidazole, 1-(3-Aminopropyl) imidazole]

SMILES: Oc1ccccc1Cl [2-Cl phenol]
Known pKa [3]: 8.24
pKa Derived [4]: 8.15 and 8.16

pKa [2]: 3.39 ± 0.08
SMILES: Nc1cccc(C(=O)O)c1 [3-Aminobenzoic acid]

SMILES: Oc1cccc(Cl)c1 [3-Cl phenol]
Known pKa [3]: 8.81
pKa Derived [4]: 8.79 and 8.78

SMILES: N#Cc1ccc(O)cc1 [4-CN phenol]
Known pKa [3]: 7.7
pKa Derived [4]: 7.62 and 7.58

SMILES: Oc1ccc(Cl)cc1 [4-Cl phenol, 4-Chlorophenol]
pKa (1st Deriv.) ([1]; run with calibration curve pH=−0.021×time+12.49): 9.16 ± 0.08
pKa (1st Deriv.) [1, 8]: 9.25 ± 0.07
pKa (TFA) ([1]; run with calibration curve pH=−0.022×time+12.66, target factor analysis): 9.04 ± 0.01
pKa [2]: 9.03 ± 0.03
pKa ([4]; buffered linear pH gradient (apparatus of FIG. 2), read-out: pKa Derived): 9.14
pKa Derived [4]: 9.13
pKa ([5]; 0.15 KCl solution): 9.14

SMILES: O=[N+]([O-])c1ccc(O)cc1 [4-NO2phenol, p-nitrophenol]
pKa (Standard Curve) ([6]; standards STD1, STD2 of Example 3): 6.869
pKa (calibration standards) ([6]; standards for calibration curves of the FIG. 8 runs): 6.869
pKa ([5]; 0.15 KCl solution): 6.89

pKa [2]: 9.23 ± 0.1
SMILES: NCc1ccccc1 [Benzylamine]
pKa (lit. data) [7]: 9.34^a

pKa [2]: 8.84 ± 0.05
SMILES: O=C1OC(c2ccc(O)cc2)(c2ccc(O)cc2)c2ccccc21 [Phenolphthalein]

SMILES: O=C(O)Cc1ccccc1 [Phenylacetic acid]
pKa [2]: 4.34 ± 0.01
pKa (lit. data) [7]: 4.07^b

SMILES: NCCc1ccccc1 [Phenylethylamine]
pKa [2]: 9.64 ± 0.07

pKa (1st Deriv.) [1, 8]: 10.03 ± 0.08
pKa [2]: 10.09 ± 0.03
SMILES: NCCc1c[nH]c2ccc(O)cc12 [Serotonin]
pKa (lit. data) [7]: 9.80^a and 10.04^a

pKa [2]: 7.96 ± 0.03
SMILES: CC(C)NCC(O)c1ccc(NS(C)(=O)=O)cc1 (centres unmarked) [Sotalol]

pKa [2]: 4.15 ± 0.01
SMILES: O=C(O)/C=C/c1ccccc1 [Trans-cinnamic acid]
pKa (lit. data) [7]: 4.20^b

pKa [2]: 4.57 ± 0.05
SMILES: O=C(O)C/C=C/c1ccccc1 [Trans-styrylacetic acid]

SMILES: NCCc1c[nH]c2ccccc12 [Tryptamine]
pKa (1st Deriv.) [1, 8]: 10.05 ± 0.10
pKa [2]: 9.67 ± 0.03

SMILES: O=C(O)c1ccccc1C(=O)O [phthalate 1, potassium hydrogen phthalate]
pKa [5]: 4.82
